Source: PubChem BioAssay AID1963865 (Molecular Pharmacology Branch, DTP, NCI, 2024)

System: KRAS PDC multicell spheroid viability
Assay: Anticancer human tumor 825966-067-R-J1-PDC patient-derived colon carcinoma cell line growth inhibition [KRAS2]
Conditions: for IC50: curve of first compound; for viability, T/C: stronger effect = lower value
Excerpt: Multicellular complex tumor spheroid response to RAS pathway inhibitors in combination with a targeted agents in patient-derived cell lines with oncogenic KRAS variants from multiple cancer types
A high-throughput screen of multi-cell type tumor spheroids was designed to identify active combinations of targeted small molecules and KRAS pathway inhibitors. Complex spheroids include a stromal component modeled by human endothelial cells (HUVEC) and fibroblasts modeled by human mesenchymal stem cells (MSCs). The concentration ranges selected for each drug and investigational agent were based upon clinically achievable concentrations if the clinical Cmax of the agent was known.
Compounds. The drugs and investigational agents: BI-3406 (NSC825286), BAY-293 (NSC824723), batoprotafib (TNO155; NSC825523), sotorasib (AMG 510; NSC818433), MRTX1257 (NSC819558), elimusertib (BAY 1895344; NSC800525), molibresib (GSK525762; NSC774829), temuterkib (LY3214996; NSC803410), venetoclax (NSC766270), alisertib (NSC759677), olaparib (NSC753686), talazoparib (NSC767125), erdafitinib (NSC781556), ipatasertib (NSC767898), cabozantinib (NSC761068), nintedanib (NSC756659), abemaciclib (NSC768073), docetaxel (NSC628503), trametinib (NSC758246), and sapanisertib (NSC764658) were obtained from the National Cancer Institute (NCI) Developmental Therapeutics Program Chemical Repository. The FDA-approved anticancer drug set is available from the Developmental Therapeutics Program. […] The stock solutions were prepared in dimethyl sulfoxide (DMSO, Sigma-Aldrich, St. Louis, MO, cat. D2650) at 800-fold the tested concentration and stored at -70 degrees C prior to their use. All drugs and investigational agents were tested over a range starting from a high concentration at or near the clinical Cmax and decreasing in half-log increments. If the clinical Cmax for an agent had not been determined, the highest concentration tested was 10 microM.
Cell Culture. All cells were maintained in an incubator at 37 degrees C and 5% CO2 with 95% humidity. The PDC lines were cultured according to standard operating procedures established by the NCI PDMR (https://pdmr.cancer.gov/sops/default.htm). Briefly, all PDCs were thawed and cultured in Matrigel-coated flasks prepared with a working solution of 1X Ham's F-12 nutrient mix, without supplementation (Invitrogen, Waltham, MA, cat. 11765054), 100 U/mL penicillin-streptomycin (Invitrogen, cat. 15140122), and 2.5% Matrigel (Corning Inc., Corning, NY, cat. 354248) for the first three passages. All PDCs were cultured in complete DMEM/F-12 media containing advanced DMEM/F-12 (Invitrogen, cat. 12634028), 4.9% defined fetal bovine serum, heat inactivated (HyClone Laboratories Inc., Logan, UT, cat. SH30070.03HI), 389 ng/mL hydrocortisone (Sigma-Aldrich, cat. H4001), 9.7 ng/mL human EGF recombinant protein (Invitrogen, cat. PHG0313), 23.4 microg/mL adenine (Sigma-Aldrich, cat. A2786), 97.3 U/mL penicillin-streptomycin (Invitrogen, cat. 15140122), 1.9 mM L-glutamine (Invitrogen, cat. 25030081), and 9.7 microM Y-27632 dihydrochloride (Tocris Bioscience, Bristol, United Kingdom, cat. 1254). The PDCs were cultured in complete DMEM/F12 media without 9.7 microM Y-27632 dihydrochloride for at least two passages prior to the screen. The established cell line HOP-62 was cultured in RPMI 1640 medium, HEPES (Invitrogen, cat. 22400105) with 10% defined fetal bovine serum (HyClone Laboratories Inc., cat. SH30070.03) and 2 mM L-glutamine (Invitrogen, cat. 25030081). The pooled donor HUVEC were cultured in endothelial cell growth medium 2 (PromoCell, Heidelberg, Germany, cat. C-22011) and the hMSC were cultured in mesenchymal stem cell growth medium 2 (PromoCell, cat. C-28009). For all experiments, HUVEC and hMSC were used at passages </=5, while the malignant cell lines were used at passages </=15. […]

[1] = second compound 0.1 µM, first compound 0.0316 µM
[2] = second compound 0.1 µM, first compound 0.1 µM
[3] = second compound 0.1 µM, first compound 0.316 µM
[4] = second compound 0.1 µM, first compound 1 µM
[5] = second compound 0.1 µM, first compound 3.16 µM
[6] = second compound 0.316 µM, first compound 0.0316 µM
[7] = second compound 0.316 µM, first compound 0.1 µM
[8] = second compound 0.316 µM, first compound 0.316 µM
[9] = second compound 0.316 µM, first compound 1 µM
[10] = second compound 0.316 µM, first compound 3.16 µM
[11] = second compound 1 µM, first compound 0.0316 µM
[12] = second compound 1 µM, first compound 0.1 µM
[13] = second compound 1 µM, first compound 0.316 µM
[14] = second compound 1 µM, first compound 1 µM
[15] = second compound 1 µM, first compound 3.16 µM
[16] = second compound 3.16 µM, first compound 0.0316 µM
[17] = second compound 3.16 µM, first compound 0.1 µM
[18] = second compound 3.16 µM, first compound 0.316 µM
[19] = second compound 3.16 µM, first compound 1 µM
[20] = second compound 3.16 µM, first compound 3.16 µM
[21] = second compound 10 µM, first compound 0.0316 µM
[22] = second compound 10 µM, first compound 0.1 µM
[23] = second compound 10 µM, first compound 0.316 µM
[24] = second compound 10 µM, first compound 1 µM
[25] = second compound 10 µM, first compound 3.16 µM
[26] = second compound 0.1 µM, first compound 10 µM
[27] = second compound 0.316 µM, first compound 10 µM
[28] = second compound 1 µM, first compound 10 µM
[29] = second compound 3.16 µM, first compound 10 µM
[30] = second compound 10 µM, first compound 10 µM
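Note: spheroids exposed to compounds for 7 days.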
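Throughout, for viability, T/C: 100% = DMSO vehicle control viability.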

SMILES	IC50 (second compound 0.1 µM) [µM]	IC50 (second compound 0.316 µM) [µM]	IC50 (second compound 1 µM) [µM]	IC50 (second compound 3.16 µM) [µM]	IC50 (second compound 10 µM) [µM]	viability, T/C [1] [%]	viability, T/C [2] [%]	viability, T/C [3] [%]	viability, T/C [4] [%]	viability, T/C [5] [%]	viability, T/C [6] [%]	viability, T/C [7] [%]	viability, T/C [8] [%]	viability, T/C [9] [%]	viability, T/C [10] [%]	viability, T/C [11] [%]	viability, T/C [12] [%]	viability, T/C [13] [%]	viability, T/C [14] [%]	viability, T/C [15] [%]	other results
CC1COCCN1c1cc(-c2ccnn2C)c2ccnc(-c3ccn[nH]3)c2n1 (stereo not given) + C=CC(=O)N1CCN(c2nc(=O)n(-c3c(C)ccnc3C(C)C)c3nc(-c4c(O)cccc4F)c(F)cc23)C(C)C1	0.308	> 3.16	0.263	3.16	> 3.16	135	123	41.5	56.2	47.4	142	72.9	60.3	44.9	60.4	125	71	41.5	51.1	41.4	viability, T/C (second compound 0.1 µM, first compound 0.01 µM): 110%; viability, T/C (second compound 0.316 µM, first compound 0.01 µM): 137%; viability, T/C (second compound 1 µM, first compound 0.01 µM): 137%; viability, T/C (second compound 3.16 µM, first compound 0.01 µM): 106%; viability, T/C [16]: 146%; viability, T/C [17]: 70.4%; viability, T/C [18]: 70.8%; viability, T/C [19]: 51.2%; viability, T/C [20]: 43%; viability, T/C (second compound 10 µM, first compound 0.01 µM): 137%; viability, T/C [21]: 108%; viability, T/C [22]: 64.6%; viability, T/C [23]: 75.8%; viability, T/C [24]: 59.1%; viability, T/C [25]: 47.2%
CC1OCC2(CCN(c3cnc(Sc4ccnc(N)c4Cl)c(N)n3)CC2)C1N (stereo not given) + C=CC(=O)N1CCN(c2nc(=O)n(-c3c(C)ccnc3C(C)C)c3nc(-c4c(O)cccc4F)c(F)cc23)C(C)C1	9.58	6.95	7.78	6.05	4.49	78.4	66.8	98.4	85	94.1	82.8	96.1	79.4	78.3	94.1	82.1	69.3	74.8	75.5	76.3	viability, T/C [26]: 48.6%; viability, T/C [27]: 33.3%; viability, T/C [28]: 43.1%; viability, T/C [16]: 93.5%; viability, T/C [17]: 70.1%; viability, T/C [18]: 83.2%; viability, T/C [19]: 81%; viability, T/C [20]: 90.4%; viability, T/C [29]: 23.9%; viability, T/C [21]: 80.5%; viability, T/C [22]: 74.3%; viability, T/C [23]: 106%; viability, T/C [24]: 92.9%; viability, T/C [25]: 70.1%; viability, T/C [30]: 4.36%
CCNC(=O)CC1N=C(c2ccc(Cl)cc2)c2cc(OC)ccc2-n2c(C)nnc21 (stereo not given) + C=CC(=O)N1CCN(c2nc(=O)n(-c3c(C)ccnc3C(C)C)c3nc(-c4c(O)cccc4F)c(F)cc23)C(C)C1	> 10	> 10	> 10	> 10	1.29	81	80.9	108	111	99.5	79.6	76.6	68	104	85.6	80.9	91.5	102	83.3	83.9	viability, T/C [26]: 81.8%; viability, T/C [27]: 85.2%; viability, T/C [28]: 63.6%; viability, T/C [16]: 74.8%; viability, T/C [17]: 82.3%; viability, T/C [18]: 98.3%; viability, T/C [19]: 91.8%; viability, T/C [20]: 50.1%; viability, T/C [29]: 61.5%; viability, T/C [21]: 104%; viability, T/C [22]: 72.5%; viability, T/C [23]: 95.4%; viability, T/C [24]: 54.3%; viability, T/C [25]: 32.4%; viability, T/C [30]: 36.9%
Cn1nccc1Nc1nccc(-c2cc3c(s2)C(C)(C)N(CCN2CCOCC2)C3=O)n1 + C=CC(=O)N1CCN(c2nc(=O)n(-c3c(C)ccnc3C(C)C)c3nc(-c4c(O)cccc4F)c(F)cc23)C(C)C1	> 10	> 10	7.09	> 10	> 10	89.9	101	119	100	81.3	84.2	91.3	122	107	83.2	86.9	83.6	103	98.7	78.4	viability, T/C [26]: 85.8%; viability, T/C [27]: 72.2%; viability, T/C [28]: 38%; viability, T/C [16]: 95.3%; viability, T/C [17]: 95.7%; viability, T/C [18]: 111%; viability, T/C [19]: 82.8%; viability, T/C [20]: 77.7%; viability, T/C [29]: 67%; viability, T/C [21]: 73.4%; viability, T/C [22]: 86.5%; viability, T/C [23]: 92.1%; viability, T/C [24]: 82.5%; viability, T/C [25]: 77.8%; viability, T/C [30]: 73%
